Article PMC10455802, “A New Mild Method for Synthesis of Marine Alkaloid Fascaplysin and Its Therapeutically Promising Derivatives” (Marine Drugs, 2023)

Tests used:
[1] = test system: LNCaP cells (human prostate cancer); assay: MTT assay, LNCaP; type: cell-based; settings: 48 h, mean ± SD
Text: (§1) To investigate the effect of the tert-butyl group on anticancer activity and selectivity, we evaluated the cytotoxic activity of unsubstituted fascaplysin (1) and 6-tert-butylfascaplysin (4) in various cancer and non-cancer cell lines using the well-established MTT method (Table 4). The effects on the human prostate cancer cells PC3 and DU145 (hormone-independent cells), 22Rv1 (partially hormone-independent cells), and LNCaP (hormone-sensitive cells), as well as on the normal (non-cancerous) human cells PNT2, MRC-9, and HEK293, were investigated. The mean cytotoxicity of compound 4 towards either cancerous or non-cancerous cells decreased by ~2-fold compared to that of fascaplysin (1).
(§2) Cell lines PC-3, DU145, 22Rv1, and LNCaP (human prostate cancer), as well as PNT2 (human prostate non-cancer), were purchased from ATCC (Manassas, VA, USA). Human embryonic kidney cells HEK 293T and human fibroblasts MRC-9 cell lines were purchased from ECACC (Salisbury, UK). […] The cells were cultured at 37 °C as monolayers in a humidified atmosphere of 5% CO2. […]
(§3) The cytotoxic activity of the synthesized compounds was examined using an MTT assay, which was performed as previously reported. […] The absorbance of the DMSO solutions was measured using a TECAN Infinite F200PRO reader (Männedorf, Switzerland). IC50 were calculated with the GraphPad Prism v.9.1.1 (San Diego, CA, USA).

[2] = test system: PNT2 cells (human prostate non-cancer); assay: MTT assay, PNT2; type: cell-based; settings: PNT2, 48 h, mean ± SD
Text: as §1, §2, §3

[3] = test system: human prostate cancer cells PC-3, 22Rv1, DU145, LNCaP; assay: MTT assay, cancer cells (average); type: cell-based; settings: mean of PC-3, 22Rv1, DU145, LNCaP
Text: as §1, §2, §3

[4] = test system: DU145 cells (human prostate cancer); assay: MTT assay, DU145; type: cell-based; settings: DU-145, DU145, 48 h, mean ± SD
Text: as §1, §2, §3

[5] = test system: HEK293 cells (human embryonic kidney); assay: MTT assay, HEK293; type: cell-based; settings: HEK293, 48 h, mean ± SD
Text: as §1, §2, §3

[6] = test system: MRC-9 cells (human fibroblasts); assay: MTT assay, MRC-9; type: cell-based; settings: MRC9, MRC-9, 48 h, mean ± SD
Text: as §1, §2, §3

[7] = test system: PC-3 cells (human prostate cancer); assay: MTT assay, PC-3; type: cell-based; settings: PC-3, 48 h, mean ± SD
Text: as §1, §2, §3

[8] = test system: 22Rv1 cells (human prostate cancer); assay: MTT assay, 22Rv1; type: cell-based; settings: 22Rv1, 48 h, mean ± SD
Text: as §1, §2, §3

[9] = test system: normal (non-cancerous) human cells PNT2, MRC-9, HEK293; assay: MTT assay, non-cancer cells (average); type: cell-based; settings: mean of PNT2, MRC-9, HEK293
Text: as §1, §2, §3

[10] = test system: human prostate cancer cells and normal (non-cancerous) human cells; assay: MTT assay, cancer and non-cancer cell lines together (selectivity, overall cytotoxicity); type: cell-based
Text: as §1
Cell lines PC-3, DU145, 22Rv1, and LNCaP (human prostate cancer), as well as PNT2 (human prostate non-cancer), were purchased from ATCC (Manassas, VA, USA). Human embryonic kidney cells HEK 293T and human fibroblasts MRC-9 cell lines were purchased from ECACC (Salisbury, UK). […] The cells were cultured at 37 °C as monolayers in a humidified atmosphere of 5% CO2. The culture mediums used for cultivation and experiments: for PNT2, LNCaP, 22Rv1, PC-3, and DU145 cells—RPMI Glutamax^TM-I medium (gibco® Life Technologies^TM, Paisley, UK), supplemented with 10% FBS (gibco® Life Technologies^TM) and 1% penicillin/streptomycin (Invitrogen, Waltham, MA, USA); for MRC-9 and HEK 293 cells—DMEM GlutamaxTM-I medium (gibco® Life Technologies^TM), supplemented with 10% FBS and 1% penicillin/streptomycin.
as §3, with “reported. In brief, the cells were seeded in 96-well plates (6000 cells/well) and incubated overnight. The medium was replaced with fresh medium containing the tested drugs, and the cells were incubated for an additional 48 h.” for “reported.”

[11] = test system: double-stranded calf thymus DNA; assay: Thiazole orange displacement (DNA intercalation assay); type: binding; settings: compared to fascaplysin (1)
Procedure: As the intercalation into DNA is considered an important component of the biological mechanism of action of fascaplysin, we evaluated and compared this activity for the synthesized 6-tert-butylfascaplysin (4) and unsubstituted fascaplysin (1). The drug–DNA complex formation was assessed by a fluorescent intercalator displacement assay based on the detachment of the thiazole orange (TO) intercalating agent from the DNA duplex by the tested compounds. The half-maximal concentrations for the effective displacement of TO from the DNA complex were calculated and are presented in Figure 3. In this experiment, the well-established DNA-binding compound, propidium iodide (PI), was used as a positive control.
A thiazole displacement assay was performed to measure the DNA intercalation activity. A mixture, containing 1 μM of double-stranded calf thymus DNA (recalculated as a concentration of base pairs) and 2 μM of thiazole orange (TO) staining agent dissolved in H2O, was used. The fascaplysins were added at concentrations of 0.39–25 μM. The DMSO concentration in the samples was not more than 0.02%. […] TO fluorescence was measured 7 min post-incubation at room temperature using a multimodal plate reader TECAN Spark (Männedorf, Switzerland) at the excitation λ = 480 nm. Fluorescence was recorded at λ = 530 nm with the bandwidth 10 nm. […]

[12] = type: physicochemical
Procedure: (§4) It was proposed based on the HRMS data, and its obtainment can be explained by the tendency towards oxidation of the fragment of p-hydroxyaminophenol of compound 26 (Scheme 6).
Method A. Freshly distilled BF3·OEt2 (0.02 mL, […]) in 2 mL of dry acetonitrile was slowly added to a stirred solution of 3 (5 mg, 0.01 mmol) and anhydrous NaI (2 mg, […]) in 5 mL of dry acetonitrile at 0 °C for 10–15 min. The mixture was stirred at 0 °C for 2 h and then for another 8 h at room temperature. The reaction was monitored by TLC. The formation of a rapidly oxidizing compound, presumably compound 27, with by-products was observed.
Method B. To 5 mg of 9-benzyloxyfascaplysin (0.01 mmol) in 5 mL of ethanol in a 10 mL flat-bottom flask, a catalytic amount of 10% palladium on carbon was added; this was sealed with a septum and left to stir under a hydrogen atmosphere on a magnetic stirrer at room temperature for 16 h. The reaction mixture changed color to green after 15 min. The progress of the reaction was monitored by TLC. The formation of a rapidly oxidizing compound, presumably compound 27, with by-products was observed.

[13] = Solubility observation of debenzylation product; type: physicochemical; settings: product of benzyl removal from 3, presumably quinoid compound
Text: as §4

Row | Structure (SMILES) | IC50 [1] | IC50 [2] | IC50 [3] | IC50 [4] | IC50 [5] | IC50 [6] | IC50 [7] | IC50 [8] | IC50 [9] | IC50 ([10]; Homo sapiens, all tested cancer and non-cancer cell lines, read-out: IC50 in either cell line) | Selectivity index (SI) ([10]; SI = mean [IC50 non-cancer cells]/mean [IC50 cancer cells]) | fold decrease of mean cytotoxicity compared to fascaplysin (1) ([10]; towards either cancerous or non-cancerous cells) | fold less effective at displacing TO from the fluorescent complex with DNA than 1 [11] | chemical stability [12] | solubility [13]
1 | O=C1c2ccccc2-[n+]2ccc3c([nH]c4ccccc43)c21 [Compound 1, fascaplysin] | 409 ± 20 nM | 457 ± 75 nM | 554 nM | 798 ± 54 nM | 458 ± 190 nM | 890 ± 46 nM | 766 ± 126 nM | 242 nM | 602 nM |  |  |  |  |  | 
2 | CC(C)(C)c1cc2c([nH]c3ccccc32)c2[n+]1-c1ccccc1C2=O [Compound 4, 6-tert-butylfascaplysin] | 1330 ± 240 nM | 1820 ± 448 nM | 1190 nM | 1730 ± 172 nM | 348 ± 90 nM | 1370 ± 424 nM | 1100 ± 76 nM | 580 ± 73 nM | 1180 nM | ≤ 2000 nM | 0.99 | ~ 2 fold | 7 fold |  | 
3 | O=C1c2ccccc2-[n+]2ccc3c([nH]c4ccc(O)cc43)c21 [Compound 26, 9-hydroxyfascaplysin] |  |  |  |  |  |  |  |  |  |  |  |  |  | chemically highly unstable | 
4 | O=c1ccc2nc3c(cc[n+]4c5ccccc5c(=O)c34)c-2c1 [Compound 27] |  |  |  |  |  |  |  |  |  |  |  |  |  |  | extremely poorly soluble
